According to patent US20170001990A1 (Genentech, Inc., priority 2014, published 2017):

Target: Human recombinant carboxy-terminal his-tagged LDHA (amino acids 2-332) (Homo sapiens, UniProt P00338)
Test: LDHA enzyme inhibition assay (NADH fluorescence)
Conditions: LDHA IC50 (μM), 1 nM LDHA, NADH and pyruvate, stereochemistry of tested sample given

SMILES	IC50
CCOc1cccc(C2(c3ccsc3)CC(=O)C(Sc3ccccc3Cl)C(=O)N2)n1 (stereo not drawn) [Example 74, 3-(2-chlorophenyl)sulfanyl-6-(6-ethoxy-2-pyridyl)-6-(3-thienyl)piperidine-2,4-dione]	0.014 µM
CC(C)COc1cccc(C2(c3ccsc3)CC(=O)C(Sc3ccccc3Cl)C(=O)N2)n1 (stereo not drawn) [Example 75, 3-(2-chlorophenyl)sulfanyl-6-(6-isobutoxy-2-pyridyl)-6-(3-thienyl)piperidine-2,4-dione]	0.07 µM
O=C1CC(c2ccsc2)(c2cccc(Oc3ccc(OC(F)(F)F)cc3)n2)NC(=O)C1Sc1ccccc1Cl (stereo not drawn) [Example 76, 3-(2-chlorophenyl)sulfanyl-6-(3-thienyl)-6-[6-[4-(trifluoromethoxy)phenoxy]-2-pyridyl] piperidine-2,4-dione]	0.015 µM
O=C1CC(c2ccsc2)(c2cccc(Oc3cccc(F)c3)n2)NC(=O)C1Sc1ccccc1Cl (stereo not drawn) [Example 80, 3-(2-chlorophenyl)sulfanyl-6-[6-(3-fluorophenoxy)-2-pyridyl]-6-(3-thienyl) piperidine-2,4-dione]	0.056 µM
O=C1CC(c2ccsc2)(c2cccc(OCCC3CC3)n2)NC(=O)C1Sc1ccccc1Cl (stereo not drawn) [Example 81, 3-((2-chlorophenyl)thio)-6-(6-(2-cyclopropyl-ethoxy)pyridin-2-yl)-6-(thiophen-3-yl)piperidine-2,4-dione]	0.229 µM
CN(C)c1cccc(C2(c3ccsc3)CC(=O)C(Sc3ccccc3Cl)C(=O)N2)n1 (stereo not drawn) [Example 85, 3-((2-chlorophenyl)thio)-6-(6-(dimethylamino)pyridin-2-yl)-6-(thiophen-3-yl)piperidine-2,4-dione]	0.018 µM
O=C1CC(c2ccsc2)(c2cccc(Oc3cccc4cccnc34)n2)NC(=O)C1Sc1ccccc1Cl (stereo not drawn) [Example 88, 33-(2-chlorophenyl) sulfanyl-6-[6-(8-quinolyloxy)-2-pyridyl]-6-(3-thienyl)piperidine-2,4-dione]	0.017 µM
O=C1CC(c2ccsc2)(c2cccc(Oc3cccc4ccncc34)n2)NC(=O)C1Sc1ccccc1Cl (stereo not drawn) [Example 89, 3-(2-chlorophenyl)sulfanyl-6-[6-(8-iso-quinolyloxy)-2-pyridyl]-6-(3-thienyl)piperidine-2,4-dione]	0.018 µM
O=C1CC(c2ccsc2)(c2cccc(Oc3cccc4cnccc34)n2)NC(=O)C1Sc1ccccc1Cl (stereo not drawn) [Example 90, 3-((2-chlorophenyl)thio)-6-(6-(isoquinolin-5-yloxy)pyridin-2-yl)-6-(thiophen-3-yl)piperidine-2,4-dione]	0.013 µM
O=C1C[C@](c2ccsc2)(c2cccc(OCCC3CC3)n2)NC(=O)C1Sc1ccccc1Cl (stereo partly drawn) [Example 92, (6S)-3-((2-chlorophenyl)thio)-6-(6-(2-cyclopropyl-ethoxy)pyridin-2-yl)-6-(thiophen-3-yl)piperidine-2,4-dione]	0.007 µM
COCc1ccccc1Oc1cccc(C2(c3ccsc3)CC(=O)C(Sc3ccccc3Cl)C(=O)N2)n1 (stereo not drawn) [Example 94]	0.023 µM
O=C1C[C@@](c2ccsc2)(c2cccc(OCCC3CC3)n2)NC(=O)C1Sc1ccccc1Cl (stereo partly drawn) [Example 95, (6R)-3-((2-chlorophenyl)thio)-6-(6-(2-cyclo-propylethoxy)pyridin-2-yl)-6-(thiophen-3-yl) piperidine-2,4-dione]	0.29 µM
O=C1CC(c2ccsc2)(c2cccc(Oc3ccccn3)n2)NC(=O)C1Sc1ccccc1Cl (stereo not drawn) [Example 96, 3-(2-chlorophenyl)sulfanyl-6-[6-(2-pyridyloxy)-2-pyridyl]-6-(3-thienyl) piperidine-2,4-dione]	0.019 µM
O=C1CC(c2ccsc2)(c2cccc(Oc3ccc(F)c4cccnc34)n2)NC(=O)C1Sc1ccccc1Cl (stereo not drawn) [Example 98, 3-(2-chlorophenyl)sulfanyl-6-[6-[(5-fluoro-8-quinolyl)oxy]-2-pyridyl]-6-(3-thienyl)piperidine-2,4-dione]	0.167 µM
O=C1CC(c2ccsc2)(c2cccc(Oc3cccc4cccnc34)n2)NC(=O)C1Sc1ccccc1Cl (stereo not drawn) [Example 100, 3-((2-chlorophenyl)thio)-6-(6-(quinolin-8-yloxy)pyridin-2-yl)-6-(thiophen-3-yl)piperidine-2,4-dione]	0.046 µM
COCc1ccccc1Oc1cccc(C2(c3ccsc3)CC(=O)C(Sc3ccccc3Cl)C(=O)N2)n1 (stereo not drawn) [Example 101]	0.018 µM
O=C1CC(c2ccsc2)(c2cccc(Oc3cccc4c3NCCC4)n2)NC(=O)C1Sc1ccccc1Cl (stereo not drawn) [Example 102, 3-(2-chlorophenyl)sulfanyl-6-[6-(1,2,3,4-tetrahydro-quinolin-8-yloxy)-2-pyridyl]-6-(3-thienyl) piperidine-2,4-dione]	0.018 µM
O=C1CC(c2ccsc2)(c2cccc(Oc3cccc4[nH]ncc34)n2)NC(=O)C1Sc1ccccc1Cl (stereo not drawn) [Example 103, 3-(2-chlorophenyl)sulfanyl-6-[6-(1H-indazol-4-yloxy)-2-pyridyl]-6-(3-thienyl) piperidine-2,4-dione]	0.141 µM

SMILES	IC50
O=C1CC(c2ccsc2)(c2cccc(N3CCCc4cccc(O)c43)n2)NC(=O)C1Sc1ccccc1Cl (stereo not drawn) [Example 105, 3-(2-chlorophenyl)sulfanyl-6-[6-(8-hydroxy-3,4-dihydro-2H-quinolin-1-yl)-2-pyridyl]-9-(3-thienyl)piperidine-2,4-dione]	0.125 µM
O=C1CC(c2ccc(N3CCC(F)CC3)cc2)(c2ccsc2)NC(=O)C1Sc1ccccc1Cl (stereo not drawn) [Example 107, 3-(2-chlorophenyl)sulfanyl-6-[4-(4-fluoro-1-piperidyl)phenyl]-6-(3-thienyl)piperidine-2,4-dione]	0.131 µM
O=C1CC(c2ccsc2)(c2cccc(Oc3cccc4c3NCCC4)n2)NC(=O)C1Sc1ccccc1Cl (stereo not drawn) [Example 109, 3-((2-chlorophenyl)thio)-6-(6-((1,2,3,4-tetrahydro-quinolin-8-yl)oxy)pyridin-2-yl)-6-(thiophen-3-yl)piperidine-2,4-dione]	0.01 µM
O=C1CC(c2ccsc2)(c2cccc(Oc3cccc4c3NCCC4)n2)NC(=O)C1Sc1ccccc1Cl (stereo not drawn) [Example 111, 3-((2-chlorophenyl)thio)-6-(6-((1,2,3,4-tetrahydro-quinolin-8-yl)oxy)pyridin-2-yl)-6-(thiophen-3-yl)piperidine-2,4-dione]	0.012 µM
O=C1CC(c2ccsc2)(c2cccc(Oc3ccc(F)c(C(F)(F)F)c3)n2)NC(=O)C1Sc1ccccc1Cl (stereo not drawn) [Example 123]	0.006 µM
O=C1CC(c2ccsc2)(c2cccc(Cc3ccc(Cl)c(F)c3)n2)NC(=O)C1Sc1ccccc1Cl (stereo not drawn) [Example 130, 6-(6-(4-chloro-3-fluoro-benzyl)pyridin-2-yl)-3-((2-chlorophenyl)thio)-6-(thiophen-3-yl)piperidine-2,4-dione]	0.005 µM
O=C1CC(c2ccsc2)(c2cccc(NCCC3CC3)n2)NC(=O)C1Sc1ccccc1Cl (stereo not drawn) [Example 131, 3-(2-chlorophenyl)sulfanyl-6-[6-(2-cyclopropyl-ethylamino)-2-pyridyl]-6-(3-thienyl)piperidine-2,4-dione]	0.046 µM
O=C1CC(c2ccsc2)(c2cccc(NCCC3CC3)n2)NC(=O)C1Sc1ccccc1Cl (stereo not drawn) [Example 138, 3-(2-chlorophenyl)sulfanyl-6-[6-(2-cyclopropyl-ethylamino)-2-pyridyl]-6-(3-thienyl)piperidine-2,4-dione]	0.025 µM
O=C1CC(c2ccsc2)(c2cccc(Oc3ccc(F)c(C(F)F)c3)n2)NC(=O)C1Sc1ccccc1Cl (stereo not drawn) [Example 139, 3-(2-chlorophenyl)sulfanyl-6-[6-[3-(difluoro-methyl)-4-fluoro-phenoxy]-2-pyridyl]-6-(3-thienyl) piperidine-2,4-dione]	0.009 µM
O=C1CC(c2ccsc2)(c2cccc(Oc3cccc(C(F)(F)F)c3)n2)NC(=O)C1Sc1ccccc1Cl (stereo not drawn) [Example 140, 3-(2-chlorophenyl)sulfanyl-6-(3-thienyl)-6-[6-[3-(trifluoromethyl)phenoxy]-2-pyridyl]piperidine-2,4-dione]	0.012 µM
COc1cc(F)cc(Cc2cccc(C3(c4ccsc4)CC(=O)C(Sc4ccccc4Cl)C(=O)N3)n2)c1 (stereo not drawn) [Example 147, 3-((2-chlorophenyl)thio)-6-(6-(3-fluoro-5-methoxy-benzyl)pyridin-2-yl)-6-(thiophen-3-yl)piperidine-2,4-dione]	0.008 µM
O=C1CC(c2ccsc2)(c2cccc(Oc3ccc(F)c(C(F)(F)F)c3)n2)NC(=O)C1Sc1ccccc1Cl (stereo not drawn) [Example 150, 3-(2-chlorophenyl)sulfanyl-6-[6-[4-fluoro-3-(trifluoromethyl)phenoxy]-2-pyridyl]-6-(3-thienyl) piperidine-2,4-dione]	0.019 µM
O=C1CC(c2ccsc2)(c2cccc(Cc3cc(F)cc(F)c3)n2)NC(=O)C1Sc1ccccc1Cl (stereo not drawn) [Example 151, 3-(2-chlorophenyl)sulfanyl-6-[6-[(3,5-difluorophenyl)methyl]-2-pyridyl]-6-(3-thienyl)piperidine-2,4-dione]	0.015 µM
O=C1CC(c2ccsc2)(c2cccc(Oc3ccc(F)c(C(F)F)c3)n2)NC(=O)C1Sc1ccccc1Cl (stereo not drawn) [Example 152, 3-(2-chlorophenyl)sulfanyl-6-[6-[3-(difluoromethyl)-4-fluoro-phenoxy]-2-pyridyl]-6-(3-thienyl) piperidine-2,4-dione]	0.006 µM
O=C1CC(c2ccsc2)(c2cccc(Oc3cccc(C(F)(F)F)c3)n2)NC(=O)C1Sc1ccccc1Cl (stereo not drawn) [Example 153, 3-(2-chlorophenyl)sulfanyl-6-(3-thienyl)-6-[6-[3-(trifluoromethyl)phenoxy]-2-pyridyl]piperidine-2,4-dione]	0.012 µM
O=C1CC(c2ccsc2)(c2cccc(N3CC(C4CCOCC4)C3)n2)NC(=O)C1Sc1ccccc1Cl (stereo not drawn) [Example 162, 3-(2-chlorophenyl)sulfanyl-6-[6-(3-tetrahydropyran-4-ylazetidin-1-yl)-2-pyridyl]-6-(3-thienyl) piperidine-2,4-dione]	0.004 µM
CCC(C)COc1cccc(C2(c3ccsc3)CC(=O)C(Sc3ccccc3Cl)C(=O)N2)n1 (stereo not drawn) [Example 164, 3-(2-chlorophenyl)sulfanyl-6-[6-(2-methylbutoxy)-2-pyridyl]-6-(3-thienyl) piperidine-2,4-dione]	0.009 µM
O=C1CC(c2ccsc2)(c2cccc(Oc3ccc(Cl)cc3)n2)NC(=O)C1Sc1ccccc1Cl (stereo not drawn) [Example 167, 6-[6-(4-chlorophenoxy)-2-pyridyl]-3-(2-chlorophenyl) sulfanyl-6-(3-thienyl) piperidine-2,4-dione]	0.006 µM
